Experimental data reported in patent US10004732B2 (Novartis AG, priority 2014, dated 2018).
Read-outs that look alike come from different tables or passages of the source.

Experiments:
PI 4-kinase beta = PI 4-kinase beta (Homo sapiens, UniProt Q9UBF8); assay: Kinase Glo Luminescent Kinase Assay (Kglo), assay D; format: biochemical; conditions: read-out: Assay D PI4Kβ IC50
PI 3-kinase alpha = PI 3-kinase alpha (Homo sapiens, UniProt P42336); assay: Kinase Glo Luminescent Kinase Assay (Kglo), assay A; format: biochemical; conditions: read-out: Assay A PI3Kα IC50
Sequence of PI 3-kinase alpha (P42336 whole entry): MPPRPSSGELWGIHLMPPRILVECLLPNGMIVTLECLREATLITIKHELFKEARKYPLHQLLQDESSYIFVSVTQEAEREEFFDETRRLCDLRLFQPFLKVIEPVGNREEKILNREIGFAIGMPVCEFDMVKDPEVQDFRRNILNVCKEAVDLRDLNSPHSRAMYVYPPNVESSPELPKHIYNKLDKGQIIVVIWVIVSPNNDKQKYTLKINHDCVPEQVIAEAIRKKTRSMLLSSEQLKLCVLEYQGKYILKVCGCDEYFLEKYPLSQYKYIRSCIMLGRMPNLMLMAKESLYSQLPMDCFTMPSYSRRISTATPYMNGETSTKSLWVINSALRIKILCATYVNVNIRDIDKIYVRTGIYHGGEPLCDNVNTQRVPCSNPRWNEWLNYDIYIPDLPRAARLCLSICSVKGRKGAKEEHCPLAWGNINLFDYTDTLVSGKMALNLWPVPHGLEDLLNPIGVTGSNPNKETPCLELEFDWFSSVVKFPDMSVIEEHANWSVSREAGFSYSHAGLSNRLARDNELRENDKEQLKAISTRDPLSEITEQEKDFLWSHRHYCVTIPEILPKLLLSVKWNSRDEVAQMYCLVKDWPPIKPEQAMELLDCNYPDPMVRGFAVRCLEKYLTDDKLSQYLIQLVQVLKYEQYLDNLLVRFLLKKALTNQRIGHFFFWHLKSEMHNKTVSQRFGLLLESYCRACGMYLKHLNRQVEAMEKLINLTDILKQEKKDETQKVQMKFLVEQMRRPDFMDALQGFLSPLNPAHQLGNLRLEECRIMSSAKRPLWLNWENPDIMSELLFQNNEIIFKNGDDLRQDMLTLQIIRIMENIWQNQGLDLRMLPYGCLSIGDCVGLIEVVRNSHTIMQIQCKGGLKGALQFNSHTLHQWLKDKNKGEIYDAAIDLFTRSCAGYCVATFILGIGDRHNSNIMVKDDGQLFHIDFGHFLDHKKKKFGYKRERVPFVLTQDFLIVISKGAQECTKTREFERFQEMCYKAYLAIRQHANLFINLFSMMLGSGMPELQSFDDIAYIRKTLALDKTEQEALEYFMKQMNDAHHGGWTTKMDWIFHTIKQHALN

Vps34 = Vps34 (Homo sapiens, UniProt Q8NEB9); assay: Kinase Glo Luminescent Kinase Assay (Kglo), assay C; format: biochemical; conditions: read-out: Assay C VPS34 IC50
Sequence of Vps34 (Q8NEB9 whole entry, species assumed): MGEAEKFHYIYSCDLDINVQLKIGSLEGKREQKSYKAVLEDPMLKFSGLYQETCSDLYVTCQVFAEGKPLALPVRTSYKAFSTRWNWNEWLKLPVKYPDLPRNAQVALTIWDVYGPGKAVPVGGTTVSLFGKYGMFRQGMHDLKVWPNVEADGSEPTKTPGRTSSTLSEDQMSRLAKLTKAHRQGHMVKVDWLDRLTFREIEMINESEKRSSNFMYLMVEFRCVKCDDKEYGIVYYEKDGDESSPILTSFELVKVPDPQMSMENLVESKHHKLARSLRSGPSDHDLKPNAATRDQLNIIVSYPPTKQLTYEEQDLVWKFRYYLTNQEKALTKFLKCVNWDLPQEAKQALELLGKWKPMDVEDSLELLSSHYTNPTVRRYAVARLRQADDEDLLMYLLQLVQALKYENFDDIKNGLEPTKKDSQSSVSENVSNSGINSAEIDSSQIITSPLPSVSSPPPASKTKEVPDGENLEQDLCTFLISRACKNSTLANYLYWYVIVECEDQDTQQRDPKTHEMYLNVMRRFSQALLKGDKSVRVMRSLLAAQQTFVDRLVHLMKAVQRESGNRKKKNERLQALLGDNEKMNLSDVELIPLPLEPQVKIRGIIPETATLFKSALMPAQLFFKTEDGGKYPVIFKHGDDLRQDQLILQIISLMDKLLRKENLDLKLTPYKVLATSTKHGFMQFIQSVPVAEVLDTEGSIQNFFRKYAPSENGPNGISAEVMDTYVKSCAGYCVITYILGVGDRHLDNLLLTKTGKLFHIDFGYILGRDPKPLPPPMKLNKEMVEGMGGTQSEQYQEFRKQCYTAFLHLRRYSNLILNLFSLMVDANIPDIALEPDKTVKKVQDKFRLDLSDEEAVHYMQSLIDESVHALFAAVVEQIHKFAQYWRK

PI 3-kinase delta = PI 3-kinase delta (Homo sapiens, UniProt O00329); assay: TR-FRET Adapta assay, assay F
Sequence of PI 3-kinase delta (O00329 whole entry): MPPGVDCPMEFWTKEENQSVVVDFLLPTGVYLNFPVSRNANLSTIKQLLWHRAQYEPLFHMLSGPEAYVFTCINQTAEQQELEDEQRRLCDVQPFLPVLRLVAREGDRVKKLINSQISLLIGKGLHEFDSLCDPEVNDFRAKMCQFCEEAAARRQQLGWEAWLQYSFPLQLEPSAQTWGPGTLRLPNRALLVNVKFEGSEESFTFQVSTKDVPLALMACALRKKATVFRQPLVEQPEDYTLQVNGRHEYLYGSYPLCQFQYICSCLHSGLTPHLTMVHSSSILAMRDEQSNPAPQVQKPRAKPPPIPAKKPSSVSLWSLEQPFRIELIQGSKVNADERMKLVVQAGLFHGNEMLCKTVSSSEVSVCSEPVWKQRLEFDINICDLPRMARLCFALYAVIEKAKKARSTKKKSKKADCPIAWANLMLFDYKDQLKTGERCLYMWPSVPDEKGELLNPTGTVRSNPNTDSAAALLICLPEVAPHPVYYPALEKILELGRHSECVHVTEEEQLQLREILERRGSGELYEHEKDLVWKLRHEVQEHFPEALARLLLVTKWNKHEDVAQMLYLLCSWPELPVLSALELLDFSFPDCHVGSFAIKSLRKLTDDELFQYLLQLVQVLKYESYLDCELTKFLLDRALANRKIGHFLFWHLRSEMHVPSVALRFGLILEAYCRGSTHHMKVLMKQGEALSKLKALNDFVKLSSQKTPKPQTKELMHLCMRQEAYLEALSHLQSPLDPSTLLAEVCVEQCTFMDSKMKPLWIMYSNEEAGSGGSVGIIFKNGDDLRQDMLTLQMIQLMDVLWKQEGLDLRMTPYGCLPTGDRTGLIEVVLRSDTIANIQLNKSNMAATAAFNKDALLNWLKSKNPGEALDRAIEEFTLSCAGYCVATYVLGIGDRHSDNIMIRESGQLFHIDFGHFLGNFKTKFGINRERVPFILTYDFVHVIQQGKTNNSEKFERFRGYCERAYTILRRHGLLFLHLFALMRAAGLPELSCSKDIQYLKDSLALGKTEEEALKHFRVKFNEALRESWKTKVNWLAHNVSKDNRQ
Sequence of PI 3-kinase delta (P27986 461-568 partner): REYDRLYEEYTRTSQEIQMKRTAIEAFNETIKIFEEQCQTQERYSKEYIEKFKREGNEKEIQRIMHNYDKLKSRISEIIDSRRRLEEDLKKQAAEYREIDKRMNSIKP
Method: TR-FRET Adapta Assay for PI 3-Kinase Gamma (E), PI 3-Kinase Delta (F)
The TR-FRET Adapta™ Universal Kinase Assay Kit was purchased from Invitrogen Corporation (Carlsbad/CA, USA) (Cat. No. PV5099).
PIK3CD substrate phosphatidylinositol (PI) was obtained from Invitrogen (vesicules consisting of 2 mM phosphatidylinositol (PI) in 50 mM HEPES pH7.5; Cat. No. PV5371). PIK3CG substrate phosphatidylinositol-4,5-bisphosphate (PIP(4,5)2 was obtained from Invitrogen (PIP2:PS large unilamellar vesicules consisting of 1 mM PIP2: 19 mM PS in 50 mM HEPES pH7.5, 3 mM MgCl2, 1 mM EGTA; Cat. No. PV5100).
Time-Resolved Fluorescence Resonance Energy Transfer (TR-FRET) is a technology based on energy transfer between two adjacent dyes, from an excited electron in one dye (the donor) to an electron of an adjacent dye (the acceptor) through resonance, then released as a photon. This energy transfer is detected by an increase in the fluorescence emission of the acceptor, and a decrease in the fluorescence emission of the donor. TR-FRET assays for protein kinases use a long-lifetime lanthanide Terbium or Europium chelates as the donor species which overcome interference from compound autofluorescence or light scatter from precipitated compounds, by introducing a delay after excitation by a flashlamp excitation source. Results are often expressed as a ratio of the intensities of the acceptor and donor fluorophores. The ratiometric nature of such a value corrects for differences in assay volumes between wells, as well as corrects for quenching effects due to colored compounds. The Adapta™ assay can be divided into two phases: a kinase reaction phase and an ADP detection phase. In the kinase reaction phase, all kinase reaction components are added to the well and the reaction is allowed to incubate for a set period of time specific for each kinase. […] In the presence of an inhibitor, the amount of ADP formed by the kinase reaction is reduced, and the resulting intact antibody-tracer interaction maintains a high TR-FRET signal.
50 nL of compound dilutions were dispensed onto white 384-well small volume polystyrene plate. Then 5 μL of either PI 3-kinase gamma or PI 3-kinase delta and lipid substrate (PI or PIP2:PS) followed by 5 μL of ATP (final assay volume 10 μL) are incubated at RT. The standard reaction buffer for the Adapta™ TR-FRET assay contained 10 mM Tris-HCl pH 7.5, 3 mM MgCl2, 50 mM NaCl, 1 mM DTT, 0.05% CHAPS 3-[(3-cholamidopropyl)dimethylammonio]-1-propanesulfonate).
Data are analyzed using Excel fit software or Graphpad Prism. IC50 values were derived by fitting a sigmoidal dose-response curve to a plot of assay readout over inhibitor concentration. All fits were performed with the program XLfit4 (ID Business Solutions, Guildford, UK). […] All fits were performed with the program XLfit4 (ID Business Solutions, Guildford, UK).

PI 3-kinase gamma = PI 3-kinase gamma (Homo sapiens, UniProt P48736); assay: TR-FRET Adapta assay, assay E; format: biochemical; conditions: read-out: Assay E PI3Kγ IC50
mTOR = mTOR (Homo sapiens, UniProt P42345); assay: Lanthascreen kinase binding assay, assay G; conditions: read-out: Assay G mTOR IC50
Method: Lanthascreen™ Kinase Binding Assay for mTOR (G)
Binding of an inhibitor to the kinase competes for binding with the tracer, resulting in a loss of FRET.
50 nL of compound dilutions were dispensed onto white 384-well small volume polystyrene plate.

PI 3-kinase beta = PI 3-kinase beta (Homo sapiens, UniProt P42338); assay: Kinase Glo Luminescent Kinase Assay (Kglo), assay B; format: biochemical; conditions: read-out: Assay B PI3Kβ IC50
Sequence of PI 3-kinase beta (P42338 whole entry): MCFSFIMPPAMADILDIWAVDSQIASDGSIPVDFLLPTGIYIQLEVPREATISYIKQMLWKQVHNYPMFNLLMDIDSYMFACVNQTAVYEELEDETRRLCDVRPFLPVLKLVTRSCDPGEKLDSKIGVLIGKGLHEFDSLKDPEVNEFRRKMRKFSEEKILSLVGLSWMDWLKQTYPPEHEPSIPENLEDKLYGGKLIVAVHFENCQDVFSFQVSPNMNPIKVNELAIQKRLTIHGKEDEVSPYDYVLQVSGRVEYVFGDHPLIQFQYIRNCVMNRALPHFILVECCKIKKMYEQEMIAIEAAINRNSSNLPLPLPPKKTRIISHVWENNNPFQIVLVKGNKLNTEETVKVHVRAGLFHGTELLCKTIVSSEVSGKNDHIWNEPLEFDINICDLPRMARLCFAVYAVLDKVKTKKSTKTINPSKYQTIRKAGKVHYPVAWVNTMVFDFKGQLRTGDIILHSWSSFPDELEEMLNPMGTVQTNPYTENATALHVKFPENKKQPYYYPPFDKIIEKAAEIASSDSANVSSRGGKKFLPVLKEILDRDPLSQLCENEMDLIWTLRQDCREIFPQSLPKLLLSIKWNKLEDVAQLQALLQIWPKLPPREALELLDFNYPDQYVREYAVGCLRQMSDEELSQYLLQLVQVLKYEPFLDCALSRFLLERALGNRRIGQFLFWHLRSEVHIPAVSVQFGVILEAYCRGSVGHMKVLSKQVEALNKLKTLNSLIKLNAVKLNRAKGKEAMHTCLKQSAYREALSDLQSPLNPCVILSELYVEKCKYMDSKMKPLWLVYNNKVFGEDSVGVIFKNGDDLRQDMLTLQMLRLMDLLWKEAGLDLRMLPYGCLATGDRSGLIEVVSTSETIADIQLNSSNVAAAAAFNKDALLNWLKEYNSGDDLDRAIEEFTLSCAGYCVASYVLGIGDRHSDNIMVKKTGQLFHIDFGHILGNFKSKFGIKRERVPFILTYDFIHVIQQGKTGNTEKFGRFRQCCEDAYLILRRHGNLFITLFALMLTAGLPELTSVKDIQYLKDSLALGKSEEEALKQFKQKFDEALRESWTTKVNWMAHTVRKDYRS
Sequence of PI 3-kinase beta (P27986 461-568 partner): as the sequence (P27986 461-568 partner) above
Method: Kinase Glo Luminescent Kinase Assay (Kglo) for Pb 3-Kinase Alpha (A), Pb 3-Kinase Beta (B), Vps34 (C), Pb 4-Kinase Beta (D)
The Kinase Glo Luminescent Kinase Assay (Promega, Madison/Wis., USA) is a homogeneous HTS method of measuring kinase activity by quantifying the amount of ATP remaining in solution following a kinase reaction.
L-α-phosphatidylinositol (PI), provided as 10 mg/ml solution in methanol, was transferred into a glass tube and dried under a nitrogen beam. It was then resuspended in 3% OctylGlucoside (1-0-n-octyl-beta-D-glucopyranoside) by vortexing and stored at 4° C. 5 μL of a mix of PI/OctylGlucoside with the PI 3-kinase alpha and PI 3-kinase beta subtypes, or Vps34 or PI 4-kinase beta were added. Kinase reactions were started by the addition of 5 μl of an ATP-mix containing in a final volume 10 μL 10 mM TRIS-HCl pH 7.5, 3 mM MgCl2, 50 mM NaCl, 0.05% CHAPS, 1 mM DTT and 1 μM ATP at room temperature.
All fits were performed with the program XLfit4 (ID Business Solutions, Guildford, UK).

Sequence of PI 4-kinase beta (Q9UBF8 whole entry): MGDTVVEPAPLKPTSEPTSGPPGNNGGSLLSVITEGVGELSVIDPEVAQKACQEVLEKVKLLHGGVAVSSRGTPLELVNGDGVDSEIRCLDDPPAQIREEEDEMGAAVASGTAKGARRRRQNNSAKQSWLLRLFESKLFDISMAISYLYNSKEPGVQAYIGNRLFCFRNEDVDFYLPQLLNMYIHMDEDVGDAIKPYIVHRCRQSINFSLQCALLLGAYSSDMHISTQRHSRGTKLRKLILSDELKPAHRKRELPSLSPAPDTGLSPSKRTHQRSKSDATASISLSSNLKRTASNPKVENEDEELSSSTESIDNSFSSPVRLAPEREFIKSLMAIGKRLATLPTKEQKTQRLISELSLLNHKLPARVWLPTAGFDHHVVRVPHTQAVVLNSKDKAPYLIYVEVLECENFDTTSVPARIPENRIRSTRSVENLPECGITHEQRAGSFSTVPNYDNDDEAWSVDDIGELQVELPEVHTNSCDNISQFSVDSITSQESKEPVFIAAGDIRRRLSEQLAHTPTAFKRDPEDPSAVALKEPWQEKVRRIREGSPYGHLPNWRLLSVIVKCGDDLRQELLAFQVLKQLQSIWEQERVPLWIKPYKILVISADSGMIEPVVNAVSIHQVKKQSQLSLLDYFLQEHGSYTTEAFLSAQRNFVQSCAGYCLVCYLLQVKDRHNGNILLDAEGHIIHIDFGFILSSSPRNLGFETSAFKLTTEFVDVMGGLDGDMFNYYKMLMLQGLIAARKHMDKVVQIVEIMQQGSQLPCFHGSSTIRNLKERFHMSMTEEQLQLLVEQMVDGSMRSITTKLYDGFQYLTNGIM

Compound | IC50 (PI 4-kinase beta) | IC50 (PI 3-kinase alpha) | IC50 (Vps34) | IC50 (PI 3-kinase delta; read-out: Assay F PI3Kδ IC50) | IC50 (PI 3-kinase gamma) | IC50 (mTOR) | IC50 (PI 3-kinase beta) | IC50 (PI 3-kinase delta)
Cc1ccc(S(=O)(=O)NCC2(O)CCCCC2)cc1-c1cnc(N)c(-n2cncn2)n1 [Example 127.11] | > 10000 nM | 980 nM | > 10000 nM | 760 nM | 270 nM | > 10000 nM | 1300 nM | –
Cc1cc(-c2nc(-c3cc(S(=O)(=O)NCC4(C(N)=O)CCOCC4)ccc3C)cnc2N)ccn1 [Example 129.31, 4-((3-(5-amino-6-(2-methylpyridin-4-yl)pyrazin-2-yl)-4-methylphenylsulfonamido)methyl)tetrahydro-2H-pyran-4-carboxamide] | 6700 nM | 290 nM | > 9100 nM | 800 nM | 120 nM | > 9100 nM | 1800 nM | –
Cc1ccc(S(=O)(=O)NC(C)C(C)C)cc1-c1cnc(N)c(-n2cncn2)n1 (stereo not drawn) [Example 127.44] | 6100 nM | 730 nM | > 10000 nM | 1400 nM | 120 nM | 3700 nM | 2200 nM | –
CC[C@@H](CO)NS(=O)(=O)c1ccc(C)c(-c2cnc(N)c(-c3ccnc(C)c3)n2)c1 [Example 129.6, (S)-3-(5-amino-6-(2-methylpyridin-4-yl)pyrazin-2-yl)-N-(1-hydroxybutan-2-yl)-4-methylbenzenesulfonamide] | > 9100 nM | 740 nM | > 9100 nM | 2800 nM | 270 nM | > 9100 nM | > 9100 nM | –
Cc1ccc(S(=O)(=O)NCCCCCO)cc1-c1cnc(N)c(-n2cncn2)n1 [Example 127.9] | > 10000 nM | 2300 nM | > 10000 nM | 3000 nM | 1600 nM | > 10000 nM | > 10000 nM | –
CCN(CC)CCCNS(=O)(=O)c1ccc(C)c(-c2cnc(N)c(-c3ccnc(C)c3)n2)c1 [Example 129.23, 3-(5-amino-6-(2-methylpyridin-4-yl)pyrazin-2-yl)-N-(3-(diethylamino)propyl)-4-methylbenzenesulfonamide] | > 9100 nM | 2800 nM | > 9100 nM | 1900 nM | 380 nM | > 9100 nM | 3300 nM | –
Cc1cc(-c2nc(-c3cc(S(=O)(=O)N[C@H]4CCC[C@@H]4N)ccc3C)cnc2N)ccn1 [Example 129.38, 3-(5-amino-6-(2-methylpyridin-4-yl)pyrazin-2-yl)-N-((1S,2S)-2-aminocyclopentyl)-4-methylbenzenesulfonamide] | > 9100 nM | 1600 nM | > 9100 nM | – | 820 nM | > 9100 nM | 2700 nM | 4500 nM
Cc1cc(-c2nc(-c3cc(S(=O)(=O)N[C@H]4CC[C@H](N)CC4)ccc3C)cnc2N)ccn1 [Example 129.43, 3-(5-amino-6-(2-methylpyridin-4-yl)pyrazin-2-yl)-N-((1r,4r)-4-aminocyclohexyl)-4-methylbenzenesulfonamide] | > 9100 nM | 3000 nM | > 9100 nM | 2300 nM | 1000 nM | > 9100 nM | 5700 nM | –
Cc1ccc(S(=O)(=O)NC(C)CO)cc1-c1cnc(N)c(-n2cncn2)n1 (stereo not drawn) [Example 127.42] | 7100 nM | 1700 nM | > 10000 nM | > 10000 nM | 800 nM | > 10000 nM | 5900 nM | –
Cc1nc(-c2nc(-c3cc(S(=O)(=O)NCCC(C)(C)O)ccc3C)cnc2N)cs1 [Example 119.30] | 4710 nM | 170 nM | > 9100 nM | 110 nM | 13 nM | 2880 nM | 1500 nM | –
Cc1ccc(S(=O)(=O)N[C@@H]2CCOC2)cc1-c1cnc(N)c(-n2cncn2)n1 [Example 127.20] | 5300 nM | 970 nM | > 10000 nM | 1700 nM | 130 nM | > 10000 nM | 5100 nM | –
Cc1ccc(S(=O)(=O)NC2CCSC2=O)cc1-c1cnc(N)c(-n2cncn2)n1 (stereo not drawn) [Example 127.51] | 5300 nM | 600 nM | > 10000 nM | 580 nM | 65 nM | 5900 nM | 1900 nM | –
CC[C@H](CO)NS(=O)(=O)c1ccc(C)c(-c2cnc(N)c(-c3ccnc(C)c3)n2)c1 [Example 129.7, (R)-3-(5-amino-6-(2-methylpyridin-4-yl)pyrazin-2-yl)-N-(1-hydroxybutan-2-yl)-4-methylbenzenesulfonamide] | > 9100 nM | 900 nM | > 9100 nM | 3300 nM | 270 nM | 7800 nM | > 9100 nM | –
Cc1ccc(S(=O)(=O)NCC2(CO)CC2)cc1-c1cnc(N)c(-n2cncn2)n1 [Example 127.38] | 6700 nM | 540 nM | > 10000 nM | 2800 nM | 100 nM | > 10000 nM | 3500 nM | –
Cc1ccc(S(=O)(=O)NCC2CCN(C)C2)cc1-c1cnc(N)c(-n2cncn2)n1 (stereo not drawn) [Example 127.18] | > 10000 nM | 1900 nM | > 10000 nM | 380 nM | 1300 nM | > 10000 nM | 2400 nM | –
Cc1ncc(-c2nc(-c3cc(S(=O)(=O)NCCC(C)(C)O)ccc3C)cnc2N)o1 [Example 119.40] | 6200 nM | 150 nM | > 10000 nM | 180 nM | 23 nM | > 10000 nM | 3500 nM | –
Cc1cc(-c2nc(-c3cc(S(=O)(=O)N4CC[C@@H](N)C4)ccc3C)cnc2N)ccn1 [Example 129.40, (R)-5-(5-(3-aminopyrrolidin-1-ylsulfonyl)-2-methylphenyl)-3-(2-methylpyridin-4-yl)pyrazin-2-amine] | > 9100 nM | 670 nM | > 9100 nM | 4000 nM | 1100 nM | > 9100 nM | 6400 nM | –
COCCCNS(=O)(=O)c1ccc(C)c(-c2cnc(N)c(-n3cncn3)n2)c1 [Example 127.10] | > 10000 nM | 1700 nM | > 10000 nM | 5500 nM | 320 nM | > 10000 nM | 9200 nM | –
Cc1ccc(S(=O)(=O)NCC2(CO)CCC2)cc1-c1cnc(N)c(-n2cncn2)n1 [Example 127.49] | 4000 nM | 100 nM | > 10000 nM | 320 nM | 13 nM | 7000 nM | 460 nM | –
Cc1cc(-c2nc(-c3cc(S(=O)(=O)NCC4(O)CCCCC4)ccc3C)cnc2N)ccn1 [Example 129.4, 3-(5-amino-6-(2-methylpyridin-4-yl)pyrazin-2-yl)-N-((1-hydroxycyclohexyl)methyl)-4-methylbenzenesulfonamide] | > 9100 nM | 190 nM | > 9100 nM | 430 nM | 69 nM | 5000 nM | > 9100 nM | –
Cc1ccc(S(=O)(=O)NC[C@@H]2CCC(C)(C)O2)cc1-c1cnc(N)c(-n2cncn2)n1 [Example 127.40] | 7600 nM | 770 nM | > 10000 nM | – | 140 nM | > 10000 nM | 1500 nM | 1400 nM
